Test results as given in patent US20250213701A1, “MEDICAMENT FOR TREATING HUMAN TUMOR BASED ON ERF3A-TARGETING PROTEOLYSIS MECHANISM” (SUZHOU DEGEN BIO-MEDICAL CO., LTD., priority 2022, published 2025).

Tests used:
Format in all cases: cell-based
SRD5A3 = biological target: T1, SRD5A3 (Homo sapiens, UniProt Q9H8P0); assay: Western blot assay in HepG2 cells: SRD5A3; conditions: different concentrations at 24 h (FIG. 10)
T1 construct: The downregulation of SRD5A3 and GSPT1 (eRF3a) proteins in PC-3 and HepG2 cells by C59; endogenous in cells; host or cells: 22Rv1, PC-3, HepG2
T1 sequence (Q9H8P0 1-318): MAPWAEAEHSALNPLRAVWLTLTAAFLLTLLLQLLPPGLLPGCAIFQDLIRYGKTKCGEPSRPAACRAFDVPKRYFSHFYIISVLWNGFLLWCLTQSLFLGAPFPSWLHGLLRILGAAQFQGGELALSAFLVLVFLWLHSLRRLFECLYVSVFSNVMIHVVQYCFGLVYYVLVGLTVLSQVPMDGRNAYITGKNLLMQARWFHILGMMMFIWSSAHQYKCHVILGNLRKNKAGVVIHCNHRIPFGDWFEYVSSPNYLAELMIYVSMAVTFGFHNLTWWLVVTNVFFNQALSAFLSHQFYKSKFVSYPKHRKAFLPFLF
Source text: Example 84: Western Blot Assay of Compound C59 in 22Rv1, PC-3, and HepG2 Cells
(1) Materials: 22Rv1, PC-3, and HepG2 cell, anti-SRD5A1 antibody (ab167606), anti-SRD5A2 antibody (ab124877), anti-SRD5A3 antibody (PA5-107029), anti-androgen receptor (AR) antibody (CST, No. 5153), anti-GSPT1 antibody (Abcam, ab234433), anti-GADPH antibody (CST, No. 5174), anti-c-Myc antibody (CST, No. 8583), anti-α-tublin antibody (CST, No. 2125), anti-rabbit IgG, HRP-linked antibody (CST, No. 7074), electrophoresis device and membrane transfer device (LIUYI, BEIJING; DYCZ-24DN)
Cell seeding: 22Rv1 (Cell Bank of the Chinese Academy of Sciences, TCHu100), PC-3 (Cell Bank of the Chinese Academy of Sciences, SCSP-532) and HepG2 cells (Cell Bank of the Chinese Academy of Sciences, TCHu72) were subcultured and trypsinized to prepare 6×10^5 cells/mL suspensions, seeded on 6-well plates (3 mL/well), and cultured overnight in a cell incubator at 5% CO2 and 37° C. […]
Protein quantification: The protein was quantified using a BCA protein quantification kit. […]
Western immunoblot assay (or Western blot, WB): SDS-PAGE gel at a proper concentration was prepared according to the molecular weight of the target protein: for example, the concentration of the separation gel was 8% and the concentration of the stacking gel was 5%. The loading volume was adjusted according to the protein quantification results. […]

OVCAR-3 cells = assay: Anti-proliferative toxicity of C63 in tumor cell lines (CCK8): OVCAR-3; conditions: Homo sapiens, 72 h, 3 days, read-out: Inhibition rate
Description: (§1) Example 83: Detection of Anti-Proliferative Toxicity of C63 in Some Tumor Cell Lines
OVCAR-3 cells (purchased from the Cell Bank of the Chinese Academy of Sciences, Cat. No. TCHu228) were subcultured in a culture medium (RPMI-1640 medium+1% penicillin-streptomycin dual-antibiotic solution++20% fetal bovine serum+0.01 mg/mL recombinant human insulin) in an incubator at 5% carbon dioxide and 37° C.
OVCAR-3 cells were seeded at 2000 cells/well (90 μL) on a 96-well plate and cultured for 24 h.
(§2) 10 mM compound stock solutions were prepared in DMSO.
(§3) The compound stock solution was diluted with DMSO to give DMSO solutions 1-9 at concentrations of 0 μM, 2500 μM, 500 μM, 100 μM, 20 μM, 4 μM, 0.8 μM, 0.16 μM, and 0.032 μM.
(§4) 2 μL of each of solutions 1-9 was added to 98 μL of the medium to give mixed solutions 11-19 of the compound and the medium.
(§5) 10 μL of each of solutions 11-19 was added to the above cell seed solution to give a total volume of 100 μL (90 μL+10 μL).
(§6) The concentrations of the compound in the wells were 0 μM, 5.0 μM, 1.0 μM, 0.2 μM, 0.04 μM, 0.008 μM, 0.0016 μM, 0.00032 μM, and 0.000064 μM. All concentrations were in triplicate.
(§7) After the above-treated cells were cultured for 3 days, 10 μL of the CCK8 solution (DOJINDO, Cat. No. PF725) was added to each well. The plate was incubated in an incubator at 37° C. for 1-4 h and then detected on a microplate reader for the reading at 450 nm.

SNU-1 cells = assay: Anti-proliferative toxicity of C63 in tumor cell lines (CCK8): SNU-1; conditions: Homo sapiens, SNU1, 72 h, 3 days, read-out: Inhibition rate
Description: as §1
SNU-1 cells (purchased from the Cell Bank of the Chinese Academy of Sciences, Cat. No. TCHu230) were subcultured in a culture medium (RPMI-1640 medium+1% penicillin-streptomycin dual-antibiotic solution+10% fetal bovine serum) in an incubator at 5% carbon dioxide and 37° C.
SNU-1 cells were seeded at 5000 cells/well (90 μL) on a 96-well plate and cultured for 24 h.
as §2, §3, §4, §5, §6, §7

For `C[C@]12C=CC(=O)N[C@@H]1CC[C@@H]1[C@@H]2CC[C@]2(C)[C@@H](C(=O)Nc3cccc(N[C@@H]4CCC[C@@H](Nc5cccc6c5C(=O)N(C5CCC(=O)NC5=O)C6=O)C4)c3)CC[C@@H]12` (stereo partly drawn) [C59, N-(3-(N—(N-(4-(2-(3-(2,6-dioxopiperidine))-isoindole-1,3-dione))-1R,3R-cyclohexanediamine))phenyl)-3-oxo-4-aza-5α-androst-1-ene-17β-carboxamide], the “downregulation of SRD5A3 protein (Western blot)” value (SRD5A3) was “downregulation”.
Work on `C[C@]12C=CC(=O)N[C@@H]1CC[C@@H]1[C@@H]2CC[C@]2(C)[C@@H](C(=O)Nc3cccc(N[C@@H]4CCC[C@@H](Nc5cccc6c5C(=O)N([C@H]5CCC(=O)NC5=O)C6=O)C4)c3)CC[C@@H]12` [C63, N-(3-(N—(N-(4-(2-(3S-(2,6-dioxopiperidine))-isoindole-1,3-dione))-1R,3R-cyclohexanediamine))phenyl)-3-oxo-4-aza-5α-androst-1-ene-17β-carboxamide] yielded an inhibition at 64 pM (OVCAR-3 cells; 0.000064 μM) of 17.9%, an inhibition at 0.00032 µM (OVCAR-3 cells; 0.000320 μM) of 16.4% and an inhibition at 0.0016 µM (OVCAR-3 cells; 0.001600 μM) of 42.6%. The inhibition at 0.008 µM (OVCAR-3 cells; 0.008000 μM) was 61.4%, the inhibition at 0.04 µM (OVCAR-3 cells; 0.040000 μM) was 74.4% and the inhibition at 0.2 µM (OVCAR-3 cells; 0.200000 μM) was 80%. It also gave an inhibition at 1 µM (OVCAR-3 cells; 1.000000 μM) of 83.7%, an inhibition at 5 µM (OVCAR-3 cells; 5.000000 μM) of 85% and an inhibition at 64 pM (SNU-1 cells; 0.000064 μM) of 10.2%. The inhibition at 0.00032 µM (SNU-1 cells; 0.000320 μM) was 28.9%, the inhibition at 0.0016 µM (SNU-1 cells; 0.001600 μM) was 65.1% and the inhibition at 0.008 µM (SNU-1 cells; 0.008000 μM) was 75.2%. It also gave an inhibition at 0.04 µM (SNU-1 cells; 0.040000 μM) of 82.7%, an inhibition at 0.2 µM (SNU-1 cells; 0.200000 μM) of 82% and an inhibition at 1 µM (SNU-1 cells; 1.000000 μM) of 80.9%. It also gave an inhibition at 5 µM (SNU-1 cells; 5.000000 μM) of 79.9%.
